Results on 14 molecules are retold here after patent US8586613B2, “Pyridinium and quinolinium derivatives” (Universidad de Granada, priority 2004, dated 2013).

Read-outs that look alike come from different tables or passages of the source.

One assay concerns HT-29 cells. Description: HT-29 cell proliferation assay (Crystal Violet). The class given is cell-based, human. Conditions: six days of treatment. As for the experimental part:
The HT-29 cells were seeded in 24-well plates (35×10^3 cells/well) and were incubated for 24 hours. Then the cells were treated with different concentrations of ChoK inhibitors in the usual culture medium. Three days later, the wells were aspirated and both fresh medium and more amount of drug were added, and the cells were maintained for three more days. The quantification of the remaining cells in each well was carried out by means of the Crystal Violet method [Gillies, R. J., Didier, N., Denton, M. Anal. Biochem. 159, 109-113 (1986)], with some modifications [Hernández-Alcoceba, R., Saniger, L., Campos, J., Núñez, M. C., Khaless, F., Gallo, M. Á., Espinosa, A., Lacal, J. C. Oncogene, 15, 2289-2301 (1997)]. Briefly, the cells were washed with TD buffer and fixed with 1% glutaraldehyde for 15 minutes. After washing again with TD, the cell nuclei were coloured with 0.1% Crystal Violet for at least 30 minutes and washed three times with distilled water. The adsorbed colouring was resuspended in 10% acetic acid and the absorbance at 595 nm was determined in a spectrometer. […] This value determined by iterative curve adjustment. Two values are determined for each point of the curve, the experiment was repeated two or three times and the mean values were estimated. In the few cases in which the two values differed more than 50%, a third experiment was carried out to determine the real value. The IC50 value as a potency measurement is used to relate the biological activity of the compounds with their chemical structure.

For a further assay, the target named is T1, Human ChoK (Homo sapiens, UniProt P35790).
T1 construct: made in house; host or cells: E. coli
T1 sequence (P35790 whole entry): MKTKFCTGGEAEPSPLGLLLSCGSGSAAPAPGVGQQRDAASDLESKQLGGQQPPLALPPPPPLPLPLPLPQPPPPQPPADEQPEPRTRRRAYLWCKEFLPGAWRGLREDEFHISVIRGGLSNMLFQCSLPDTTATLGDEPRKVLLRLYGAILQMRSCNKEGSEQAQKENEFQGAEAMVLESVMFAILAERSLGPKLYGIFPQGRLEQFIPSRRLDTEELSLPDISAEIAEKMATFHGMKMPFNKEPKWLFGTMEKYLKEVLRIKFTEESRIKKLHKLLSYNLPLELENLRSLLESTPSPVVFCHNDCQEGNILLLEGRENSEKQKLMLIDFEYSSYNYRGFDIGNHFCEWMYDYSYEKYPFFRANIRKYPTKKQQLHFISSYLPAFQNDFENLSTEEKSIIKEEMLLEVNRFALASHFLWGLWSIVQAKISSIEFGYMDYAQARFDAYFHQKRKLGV
The assay is described as follows: Ex vivo assay of the activity of human ChoK (recombinant choline kinase expressed in E. coli). The class given is biochemical. As for the experimental part: Recombinant choline kinase expressed in E. coli in the buffer assay (100 mM Tris-HCl pH 8.0, 100 mM MgCl2, 10 mM ATP and 200 μM of choline in the presence of methyl[^14C]-choline chloride (50-60 μCi/mmol)) was used for the ex vivo assays. […] The samples were washed with diethyl ether saturated with water and were lyophilized. The hydrophilic choline derivatives were resolved in thin layer chromatography plates according to a described process [Ramírez, A., Penalva, V., Lucas, L., Lacal, J. C.

Setting [1] is: recombinant human ChoK, 37° C., 30 minutes.

As usually defined, the IC50 is the point on the concentration scale where inhibition reaches its midpoint. `CN(C)c1cc[n+](Cc2cccc(-c3cccc(C[n+]4ccc(N(C)C)c5ccc(Cl)cc54)c3)c2)c2cc(Cl)ccc12` [EC3, reference compound]: the IC50 is 700 nM in the assay with HT-29 cells (Homo sapiens, 144 h) and 9.6 µM on Human ChoK (setting [1]).
`CN(c1ccc(Cl)cc1)c1cc[n+](Cc2cccc(-c3cccc(C[n+]4ccc(N(C)c5ccc(Cl)cc5)c5ccccc54)c3)c2)c2ccccc12.[Br-].[Br-]` [Compound 5, 1,1′-(biphenyl-3,3′-diylmethylene)bis[4-(4-chloro-N-methylanilino)quinolinium]dibromide]: in the assay on HT-29 cells, the IC50 was found to be 1600 nM.
Regarding `CN(c1ccc(Cl)cc1)c1cc[n+](Cc2ccc(CCc3ccc(C[n+]4ccc(N(C)c5ccc(Cl)cc5)c5ccccc54)cc3)cc2)c2ccccc12` [Compound 9, 1,1′-[ethylenebis(benzene-1,4-diylmethylene)]bis[4-(4-chloro-N-methylanilino)quinolinium]dibromide], the IC50 in the assay on HT-29 cells (Homo sapiens, 144 h) amounted to 700 nM; at Human ChoK (setting [1]) it was 4.8 µM.
The matching figures for `Clc1ccc2c(N3CCCC3)cc[n+](Cc3cccc(-c4cccc(C[n+]5ccc(N6CCCC6)c6ccc(Cl)cc65)c4)c3)c2c1` [EC4, reference compound]: 400 nM and 1.2 µM.
Consider `CN(c1ccc(Cl)cc1)c1cc[n+](Cc2ccc(-c3ccc(C[n+]4ccc(N(C)c5ccc(Cl)cc5)c5ccc(Cl)cc54)cc3)cc2)c2cc(Cl)ccc12` [Compound 8, 1,1′-(biphenyl-4,4′-diylmethylene)bis[4-(4-chloro-N-methylanilino)-7-chloroquinolinium]dibromide], for which the IC50 worked out at 1200 nM with HT-29 cells (Homo sapiens, 144 h) and 11.4 µM at Human ChoK (setting [1]).
Regarding `c1cc(C[n+]2ccc(N3CCCCC3)cc2)cc(-c2cccc(C[n+]3ccc(N4CCCCC4)cc3)c2)c1` [EC2, reference compound], the IC50 with HT-29 cells (Homo sapiens, 144 h) was 1600 nM; at Human ChoK it was 1.9 µM.
As for `CN(c1ccccc1)c1cc[n+](Cc2cccc(-c3cccc(C[n+]4ccc(N(C)c5ccccc5)cc4)c3)c2)cc1.[Br-].[Br-]` [Compound 2, 1,1′-(biphenyl-3,3′-diylmethylene)bis[4-(N-methylanilino)pyridinium]dibromide], the figures for the IC50 with HT-29 cells and at Human ChoK (setting [1]) were 2200 nM and 0.42 µM, respectively.
Regarding “1,1′-(biphenyl-3,3′-diylmethylene)bis[4-(3,5-dichloro-N-methylanilino)pyridinium]dibromide [Compound 4]”, 1800 nM corresponded to half-maximal inhibition with HT-29 cells (IC50).
In the case of `CN(c1ccc(Cl)cc1)c1cc[n+](Cc2cccc(-c3cccc(C[n+]4ccc(N(C)c5ccc(Cl)cc5)c5ccc(Cl)cc54)c3)c2)c2cc(Cl)ccc12` [Compound 6, 1,1′-(biphenyl-3,3′-diylmethylene)bis[4-(4-chloro-N-methylanilino)-7-chloroquinolinium]dibromide], the IC50 worked out at 1900 nM in the assay on HT-29 cells (Homo sapiens, 144 h) and 5.7 µM on Human ChoK (setting [1]).
The matching figures for `CN(c1ccc(Cl)cc1)c1cc[n+](Cc2ccc(CCc3ccc(C[n+]4ccc(N(C)c5ccc(Cl)cc5)c5ccc(Cl)cc54)cc3)cc2)c2cc(Cl)ccc12` [Compound 10, 1,1′-[ethylenebis(benzene-1,4-diylmethylene)]bis[4-(4-chloro-N-methylanilino)-7-chloroquinolinium]dibromide]: 800 nM and 5.7 µM.
With “1,1′-(benzene-1,3-diylmethylene)bis[4-(4-chloro-N-methylanilino)pyridinium]dibromide [Compound 1]”, the IC50 in the assay on HT-29 cells amounted to 3300 nM; at Human ChoK (setting [1]), 5.7 µM.
In the case of `Clc1ccc2c(N3CCCC3)cc[n+](Cc3ccc(CCc4ccc(C[n+]5ccc(N6CCCC6)c6ccc(Cl)cc65)cc4)cc3)c2c1` [EC5, reference compound], the IC50 in the assay on HT-29 cells (Homo sapiens, 144 h) was found to be 200 nM; on Human ChoK (setting [1]) it was 1 µM.
In the case of `c1cc(C[n+]2ccc(N3CCCC3)cc2)cc(-c2cccc(C[n+]3ccc(N4CCCC4)cc3)c2)c1` [EC1, reference compound], on Human ChoK (setting [1]), the IC50 worked out at 5.8 µM.
On to `CN(C)c1cc[n+](Cc2ccc(CCCc3ccc(C[n+]4ccc(N(C)C)cc4)cc3)cc2)cc1` [EC6, reference compound], for which the IC50 is 2500 nM with HT-29 cells (Homo sapiens, 144 h) and 22 µM at Human ChoK (setting [1]).
